Legend:
Format in all cases: in vivo, C57BL/6 J mice
[1] = system: choroidal neovascularization (CNV) mouse model; assay: Laser-induced choroidal neovascularization (CNV) mouse model of wet AMD: size of neovascularization (FFA, Isolectin B4 staining); conditions: 7 days after laser; for size of neovascularization compared to the PBS control group: NMN/NR 500 mg per kg i.p. daily for 10 days, Aflibercept intravitreal, FFA and Isolectin B4 staining, p<0.001 vs PBS
Protocol: (§1) In this study, 8-week-old (18-20 g) C57BL/6 J adult mice were used. The mice were maintained according to the guidelines for the use of animals in ophthalmic and vision research set forth by the Association for Research in Vision and Ophthalmology (ARVO). All animal experiments were approved by the Institutional Animal Care and Use Committee (IACUC) of Yonsei University College of Medicine (IACUC number: 2022-0279). C57BL/6 J mice were maintained on a 12:12 hour light/dark cycle.
(§2) Mice were anesthetized using a 1:1 mixture of tiletamine and zolazepam (15 mg per kg body weight) along with Xylazine hydrochloride (10 mg per kg body weight). The pupils were dilated using Phenylephrine (0.5%) and tropicamide (0.5%). During the anesthesia and pupil dilation, a heating pad was used to maintain the body temperature at 37° C.
(§3) After confirming pupil dilation, the mice were positioned on the support of the laser device (GYC-1000 Specifications, 532 nm). A drop of 2% Hypromellose solution was placed on the corneal surface, and a glass cover slip was positioned to contact the cornea for visualization of the fundus. Additionally, the height and distance of the support were adjusted to ensure the laser was accurately positioned on the retina.
(§4) The settings for the laser used in the experiment were as follows: output: 150 mW/spot size: 50 μm, time: 50 ms. After positioning the optic nerve in the center, the laser direction was indicated using a clock face, applying a total of 4 laser shocks at the 3 o'clock, 6 o'clock, 9 o'clock, and 12 o'clock positions, once each. The successful performance of the laser shock was confirmed by the generation of bubbles in the retina, with no hemorrhage observed in the retina.
(§5) To compare the choroidal neovascularization (CNV) induced by the laser shock, mice were sacrificed 7 days after the laser shock, and to evaluate the fibrosis induced by the laser shock in the sub-retinal area, mice were sacrificed 4 weeks after the laser shock.
In this study, Nicotinamide mononucleotide (NMN) purchased from ORIENTAL YEAST CO and Nicotinamide riboside (NR) purchased from ChromaDex were used. Starting three days before the creation of the laser-induced mouse model, NMN and NR were administered intraperitoneally daily at a concentration of 500 mg per kg of body weight. […]
After the staining process was completed, the flat-mounted tissue was spread on the slide, a drop of mounting media was applied, and a glass cover was placed over it. Fluorescent images were taken using a fluorescence microscope (Olympus; BX43).
(§6) The size of neovascularization and fibrotic areas was measured using ImageJ software. […] Then, a threshold was applied to measure the size, followed by quantification of pixels. […]

subretinal fibrosis = assay: Subretinal fibrosis in laser-induced neovascular wet macular degeneration model (Collagen type I staining, OCT); conditions: for expression of Collagen type 1 compared to the PBS negative control group: 500 mg per kg i.p. daily from three days prior, NMN vs PBS p<0.001, NR vs PBS p<0.002; for production of subretinal fibrosis associated with neovascular macular degeneration: FIG. 3 legend
Protocol: as §1, §2, §3, §4, §5
(§7) In this study, Nicotinamide mononucleotide (NMN) purchased from ORIENTAL YEAST CO and Nicotinamide riboside (NR) purchased from ChromaDex were used. Starting three days before the creation of the laser-induced mouse model, NMN and NR were administered intraperitoneally daily at a concentration of 500 mg per kg of body weight.
(§8) Mice were sacrificed using carbon dioxide, and the extracted eyeballs were fixed in 1% paraformaldehyde for 1 hour. After fixation, they were sequentially treated with 10%, 20%, and 30% sucrose solutions for 1 hour each. For sectioning, the eyeballs were positioned so that the connection between the optic nerve and the center of the cornea was horizontally aligned using OCT compound, and rapid freezing was performed using liquid nitrogen vapor. The eyeballs were stored at −70° C.
(§9) The eyeballs were sectioned to a thickness of […], and thereafter, staining procedures were performed using primary and secondary antibodies. After staining, a drop of mounting media was applied to the tissue on the slide, and a cover glass was placed over it.
For flat mounting, the muscle, cornea, lens, and neural retina were removed. Then, the retinal pigment epithelium/choroid/sclera complex was radially incised eight times to create a petal-like structure. It was placed in a 1 ml microtube and stained with primary and secondary antibodies. […]
as §6

[2] = system: senescence markers p16INK4a, p21CIP1, γ-H2AX, p53 and SA-β-gal in retinal pigment epithelium/choroid/sclera complex; assay: Senescence phenotype in laser-induced neovascular wet AMD model (SA-β-gal staining, immunofluorescence of senescence markers)
Protocol: as §1, §2, §3, §4, §7, §8, §9
The primary antibodies used in this study are as follows: Isolectin GS-IB4, Alexa Fluor™ 488 conjugate (121411); Collagen I antibody (ab34710); p16INK4a antibody (ab108349); gamma H2A.X antibody (ab2893); p53 antibody (sc-126); p21CIP1 antibody (sc-6246).
Mouse eyes were enucleated, and the anterior segments were removed to isolate the retinal pigment epithelium/choroid/sclera complex. The complex was rinsed with cold PBS and then fixed at room temperature for 20 minutes using the fixative solution provided in the SA-β-galactosidase (SA-β-GAL) staining kit. Staining was performed using the staining solution mixture provided according to the manufacturer's instructions (BioVision; #K320). After overnight staining at 37° C., the samples were incubated at 55° C. for 45 minutes with 10% H2O2 to remove the pigment. Following rinsing with PBS, the samples were flattened using forceps and a surgical knife. Images were captured using a fluorescent microscope (Olympus; BX43).
SA-β-gal staining analysis, an early method for identifying senescent cells in tissues, was used. Additionally, the expression of senescence markers such as p16INK4a, p21CIP1, γ-H2AX, and p53 is increased in senescent cells. […]

[3] = seventh day post-laser induction, immunofluorescence staining

| Compound | size of neovascularization compared to the PBS control group [1] | expression of Collagen type 1 compared to the PBS negative control group (subretinal fibrosis; 28th day post-laser shock) | production of subretinal fibrosis associated with neovascular macular degeneration (subretinal fibrosis) | neovascular size compared to the NMN and NR groups ([1]; Aflibercept vs NMN p>0.99, Aflibercept vs NR p>0.99) | aging phenotype induced in a neovascular wet AMD model ([2]; FIG. 2 legend) | SA-β-gal staining of the retinal pigment epithelium/choroid/sclera complex compared to the PBS group ([2]; seventh day post-laser induction, NMN 500 mg per kg i.p. daily) | expression of p16INK4a protein compared to PBS [2, 3] | expression of p21CIP1 protein compared to PBS [2, 3] | expression of p53 protein compared to PBS [2, 3] | expression of γ-H2AX protein compared to PBS [2, 3] | fibrosis by OCT and immunofluorescence staining on sections compared to the negative control group (subretinal fibrosis; 28th day post-laser shock, 500 mg per kg i.p. daily) |
| --- | --- | --- | --- | --- | --- | --- | --- | --- | --- | --- | --- |
| NC(=O)c1ccc[n+]([C@@H]2O[C@H](CO)[C@@H](O)[C@H]2O)c1 [NR, nicotinamide riboside] | significantly reduced | significantly reduced | inhibit | – | – | – | – | – | – | – | – |
| Aflibercept [reference compound] | significant reduction | – | – | no significant difference | – | – | – | – | – | – | – |
| nicotinamide mononucleotide [NMN] | significantly reduced | significantly reduced | inhibit | – | inhibits | reduced | decreased | decreased | decreased | decreased | reduced |

— patent publication US20250170118A1, “PHARMACEUTICAL COMPOSITION FOR PREVENTING OR TREATING WET AGE-RELATED MACULAR DEGENERATION” (UIF (University Industry Foundation), Yonsei University, priority 2023, published 2025)
